Test [1] relates to SARS-CoV-2 (USA-WA1/2020 strain). The experiment in a line: SARS-CoV-2 neutralization assay, cytopathic effects (CPE) in Vero E6 cells. Format: cell-based. The following applies: for Day 2 CPE / Day 4 CPE: 1.25 mg/mL, five replicate wells.
Test [2] concerns SARS-CoV-2 infection / COVID-19. The experiment in a line: TUDCA capsules taken by persons with or exposed to COVID-19. Format: in vivo. Particulars: 500 mg capsule twice per day.
The mark [3] stands for this setting: pre-incubation with virus 60 minutes.
[4] abbreviates: simultaneous addition of drug and virus, ~100 TCID50/well.

Results on three molecules are retold here after US11607418B2, “Methods of treating SARS-CoV-2 infections” (Tyme, Inc., priority 2020, dated 2023).

Converted amounts (≈) assume the structure as drawn.

Regarding `C[C@H](CCC(=O)NCCS(=O)(=O)[O-])[C@H]1CC[C@H]2[C@@H]3[C@@H](O)C[C@@H]4C[C@H](O)CC[C@]4(C)[C@H]3CC[C@]12C.[Na+]` [Sodium TUDCA], the “Day 2 CPE” value in test [1] (setting [3]) is listed as “no CPE”. In test [1] (setting [4]), the “Day 2 CPE” value is reported as “no CPE” and the “Day 4 CPE” value was “no CPE”.

`CC(CCC(=O)NCCS(=O)(=O)O)C1CCC2C3C(O)CC4CC(O)CCC4(C)C3CCC12C` (stereo not shown) [TUDCA acid, tauroursodeoxycholic acid]: the EC50 in test [1] (Severe acute respiratory syndrome coronavirus 2, Vero C1008, calculated by the Quest Graph EC50 Calculator, inhibition of SARS-CoV-2 CPE in Vero E6 cells) is 980 µg/mL (≈ 1960 µM). In addition, the “Day 2 CPE” value in test [1] (setting [3]) is reported as “no CPE”. For the same molecule, in test [1] (setting [4]), the “Day 2 CPE” value is given as “no CPE” and the “Day 4 CPE” value is reported as “no CPE”.

Regarding `CC(CCC(=O)NCCS(=O)(=O)O)C1CCC2C3C(O)CC4CC(O)CCC4(C)C3CCC12C` (stereo not shown) [TUDCA, tauroursodeoxycholic acid], in test [2] (Example 2, oral, one rescue squad member), the “Health outcome of member who tested positive for SARS-CoV-2 with COVID-19 symptoms” value is given as “health returned to normal”. Further, the “COVID-19 symptoms despite repeated exposure to COVID-19 patients” value in test [2] (Example 2, twelve rescue squad members, at least 3 months) is “None of the other twelve members have presented with COVID-19 symptoms”. Moreover, in test [2] (Example 3, one subject), the “Health outcome of subject presenting with COVID-19 symptoms” value is given as “health returned to normal”.
